# According to patent publication US10626095B2, “Cyanotriazole compounds” (OTSUKA PHARMACEUTICAL CO., LTD., priority 2013, dated 2020):
# Assays:
# [1] = test system: NaCT-CHO (CHO cells stably expressing human NaCT); assay: Assay of the citric acid cycle activation ([1,5-14C]-citric acid, diffusion of [14C]-CO2); format: cell-based; details: 1 hour incubation at 37° C. with [1,5-14C]-citric acid
# Summary of the method: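 NaCT-CHO cells (pME-CHO empty-vector cells for non-specific counts) were incubated 1 h at 37 °C in Na+-containing HEPES-Tris pH 7.4 with compound plus an equal volume of 0.4 mM [1,5-14C]-citric acid solution. Residual cell radioactivity was counted, [14C]-CO2 diffusion was taken as (Total−R)/(Total−NS)×100%, and EC50 was derived by regression.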
# [2] = test system: Zucker Diabetic Fatty (ZDF) rat; assay: Meal load test in type 2 diabetic model rats (postprandial blood glucose); format: in vivo; parameters: unit not given here; details: ZDF rats fasted overnight, blood glucose one hour after meal loading (50 kcal/kg)
# Protocol: Effects on Type 2 Diabetes: Meal Load Test
# To evaluate whether a cyanotriazol compound improves diabetes or not, especially related to postprandial blood glucose, meal load test was performed using one of type 2 diabetic model rats, the Zucker Diabetic Fatty (ZDF) rat (Charles river, Japan). About 24 animals fasted overnight (17 h) were taken blood samples from the tail veins, and measured blood glucose levels (Pre BG) and body weights (BW). Proper animals were selected and divided into […] (n=6) based on the Pre BG and BW using SAS Statistical Analysis System (SAS institute Japan Ltd. Release 9.1). The compounds to be tested (10 or 30 mg/kg body weight in 5% Arabia gum) or Arabia gum solution only (vehicle group) were orally administrated via gavage two hours prior to or just before meal loading (50 kcal/kg body weight). The meal suspension was prepared by mixing purified AIN-93G (Norsan Corp, Yokohama, Japan) and distilled water (2:3, w/v). One-hour after meal loading, blood glucose (BG1h) of each animal was measured. Effectiveness of each compound was shown by ? BG1h (BG1h difference between compound group and vehicle group). Although a set of 24 animals was used several times (from 13 weeks to 21 weeks of age), at least a one-week interval was placed from one to another test.
Structure (SMILES),EC50 [1],BG1h (BG1h difference between compound group and vehicle group) ([2]; oral 10 mg/kg in 5% Arabia gum),BG1h (BG1h difference between compound group and vehicle group) ([2]; oral 30 mg/kg in 5% Arabia gum)
"N#Cc1[nH]nnc1-c1cccc(/C=C/c2ccc3c(c2)OC(F)(F)O3)c1 [Example 1017, 5-{3-[(E)-2-(2,2-difluoro-benzo[1,3]dioxol-5-yl)-vinyl]-phenyl}-3H-[1,2,3]triazole-4-carbonitrile]",1 µM,−124.6,–
"N#Cc1[nH]nnc1-c1cccc(-c2ccc3c(c2)OC(F)(F)O3)c1 [Example 931, 5-[3-(2,2-difluoro-benzo[1,3]dioxol-5-yl)-phenyl]-3H-[1,2,3]triazole-4-carbonitrile]",0.69 µM,−76.4,–
"N#Cc1[nH]nnc1-c1cc(Cl)cc(-c2ccc(OC(F)(F)F)cc2)c1 [Example 29, 5-(5-chloro-4′-trifluoromethoxy-biphenyl-3-yl)-3H-[1,2,3]triazole-4-carbonitrile]",0.68 µM,−37.3,–
"COc1cc(/C=C/c2cccc(C(F)(F)F)c2)cc(-c2nn[nH]c2C#N)c1 [Example 657, 5-{3-methoxy-5-[(E)-2-(3-trifluoromethyl-phenyl)-vinyl]-phenyl}-3H-[1,2,3]triazole-4-carbonitrile]",1.16 µM,−120.5,–
"N#Cc1[nH]nnc1-c1cc(Cl)cc(-c2cc(C(F)(F)F)cc(C(F)(F)F)c2)c1 [Example 275, 5-(5-chloro-3′,5′-bis-trifluoromethyl-biphenyl-3-yl)-3H-[1,2,3]triazole-4-carbonitrile]",1.04 µM,−83.3,–
"CC(OC(=O)OCC(C)(C)C(=O)O)n1nc(C#N)c(-c2cc(Cl)cc(-c3ccc4c(c3)OC(F)(F)O4)c2)n1 (stereo not shown) [Example 1808, 3-(1-{4-[3-chloro-5-(2,2-difluoro-benzo[1,3]dioxol-5-yl)-phenyl]-5-cyano-2H-[1,2,3]triazol-2-yl}-ethoxycarbonyloxy)-2,2-dimethyl-propionic acid]",–,–,−76.0
CCCC(=O)OCn1nc(C#N)c(-c2cc(Cl)cc(/C=C/c3cccc(C(F)(F)F)c3)c2)n1 [Example 1831],–,–,−61.0
"CC(OC(=O)OCC(C)(C)C(=O)O)n1nc(C#N)c(-c2csc(-c3ccc(Cl)c(Cl)c3)n2)n1 (stereo not shown) [Example 1819, 3-(1-{4-cyano-5-[2-(3,4-dichloro-phenyl)-thiazol-4-yl]-2H-[1,2,3]triazol-2-yl}-ethoxycarbonyloxy)-2,2-dimethyl-propionic acid]",–,–,−54.3
"CC(OC(=O)OCCO)n1nc(C#N)c(-c2cccc(OCc3cc(C(F)(F)F)ccc3C(F)(F)F)c2)n1 (stereo not shown) [Example 1828, carbonic acid 1-{4-[3-(2,5-bis-trifluoromethylbenzyloxy)phenyl]-5-cyano-2H-[1,2,3]triazol-2-yl}ethyl ester-2-hydroxyethyl ester]",–,–,−69.3
"CC(=O)OCn1nc(C#N)c(-c2cc(Cl)cc(/C=C/c3cccc(C(F)(F)F)c3)c2)n1 [Example 1830, acetic acid 4-{3-chloro-5-[(E)-2-(3-trifluoromethylphenyl)vinyl]phenyl}-5-cyano-2H-[1,2,3]triazol-2-ylmethyl ester]",–,–,−52.5
"CC(OC(=O)OCC(C)(C)C(=O)O)n1nc(C#N)c(-c2cccc(/C=C/c3cc(C(F)(F)F)ccn3)c2)n1 (stereo not shown) [Example 1815, 3-[1-(4-cyano-5-{3-[(E)-2-(4-trifluoromethyl-pyridin-2-yl)-vinyl]-phenyl}-2H-[1,2,3]triazol-2-yl)-ethoxycarbonyloxy]-2,2-dimethyl-propionic acid]",–,–,−63.2
"CC(OC(=O)OCC(C)(C)C(=O)O)n1nc(C#N)c(-c2cccc(/C=C/c3nccc(C(F)(F)F)n3)c2)n1 (stereo not shown) [Example 1816, 3-[1-(4-cyano-5-{3-[(E)-2-(4-trifluoromethyl-pyrimidin-2-yl)-vinyl]-phenyl}-2H-[1,2,3]triazol-2-yl)-ethoxycarbonyloxy]-2,2-dimethyl-propionic acid]",–,–,−45.5
"Cc1sc(-c2ccc(C(F)(F)F)cc2)nc1-c1nn(C(C)OC(=O)OCC(C)(C)C(=O)O)nc1C#N (stereo not shown) [Example 1820, 3-(1-{4-cyano-5-[5-methyl-2-(4-trifluoromethyl-phenyl)-thiazol-4-yl]-2H-[1,2,3]triazol-2-yl}-ethoxycarbonyloxy)-2,2-dimethyl-propionic acid]",–,–,−77.0
"CC(OC(=O)OCC(C)(C)C(=O)O)n1nc(C#N)c(-c2cc(/C=C/c3cccc(C(F)(F)F)n3)cc(C(F)(F)F)c2)n1 (stereo not shown) [Example 1813, 3-[1-(4-cyano-5-{3-trifluoromethyl-5-[(E)-2-(6-trifluoromethyl-pyridin-2-yl)-vinyl]-phenyl}-2H-[1,2,3]triazol-2-yl)-ethoxycarbonyloxy]-2,2-dimethyl-propionic acid]",–,–,−73.0
"CC(OC(=O)OCC(C)(C)C(=O)O)n1nc(C#N)c(-c2cc(Cl)cc(/C=C/c3cccc(C(F)(F)F)c3)c2)n1 (stereo not shown) [Example 1811, 3-[1-(4-{3-chloro-5-[(E)-2-(3-trifluoromethyl-phenyl)-vinyl]-phenyl}-5-cyano-2H-[1,2,3]triazol-2-yl)-ethoxycarbonyloxy]-2,2-dimethyl-propionic acid]",–,–,−84.5
"CC(=O)OCn1nc(C#N)c(-c2cc(C)cc(-c3nccc(C(F)(F)F)n3)c2)n1 [Example 1829, acetic acid 4-cyano-5-[3-methyl-5-(4-trifluoromethylpyrimidin-2-yl)phenyl]-2H-[1,2,3]triazol-2-ylmethyl ester]",–,–,−93.7
"CC(OC(=O)OCC(C)(C)C(=O)O)n1nc(C#N)c(-c2cc(Cl)cc(-c3nccc(C(F)(F)F)n3)c2)n1 (stereo not shown) [Example 1810, 3-(1-{4-[3-chloro-5-(4-trifluoromethyl-pyrimidin-2-yl)-phenyl]-5-cyano-2H-[1,2,3]triazol-2-yl}-ethoxycarbonyloxy)-2,2-dimethyl-propionic acid]",–,–,−53.2
"CC(OC(=O)OCC(C)(C)C(=O)O)n1nc(C#N)c(-c2csc(-c3cccc(OC(F)(F)F)c3)n2)n1 (stereo not shown) [Example 1818, 3-(1-{4-cyano-5-[2-(3-trifluoromethoxy-phenyl)-thiazol-4-yl]-2H-[1,2,3]triazol-2-yl}-ethoxycarbonyloxy)-2,2-dimethyl-propionic acid]",–,–,−33.0
"Cc1cc(-c2ccc(C(F)(F)F)nc2)cc(-c2nn(C(C)OC(=O)OCC(C)(C)C(=O)O)nc2C#N)c1 (stereo not shown) [Example 1825, 3-(1-{4-cyano-5-[3-methyl-5-(6-trifluoromethyl-pyridin-3-yl)-phenyl]-2H-[1,2,3]triazol-2-yl}-ethoxycarbonyloxy)-2,2-dimethyl-propionic acid]",–,–,−48.3
"CC(C)c1oc(-c2ccc(Cl)cc2)nc1-c1nn(C(C)OC(=O)OCC(C)(C)C(=O)O)nc1C#N (stereo not shown) [Example 1822, 3-(1-{4-[2-(4-chloro-phenyl)-5-isopropyl-oxazol-4-yl]-5-cyano-2H-[1,2,3]triazol-2-yl}-ethoxycarbonyloxy)-2,2-dimethyl-propionic acid]",–,–,−36.0
"COc1cc(-c2cc(C(F)(F)F)ccn2)cc(-c2nn(C(C)OC(=O)OCC(C)(C)C(=O)O)nc2C#N)c1 (stereo not shown) [Example 1812, 3-(1-{4-cyano-5-[3-methoxy-5-(4-trifluoromethyl-pyridin-2-yl)-phenyl]-2H-[1,2,3]triazol-2-yl}-ethoxycarbonyloxy)-2,2-dimethyl-propionic acid]",–,–,−111.8
"CC(OC(=O)OCC(C)(C)C(=O)O)n1nc(C#N)c(-c2nc(-c3cccc(C(F)(F)F)c3)sc2Cl)n1 (stereo not shown) [Example 1817, 3-(1-{4-[5-chloro-2-(3-trifluoromethyl-phenyl)-thiazol-4-yl]-5-cyano-2H-[1,2,3]triazol-2-yl}-ethoxycarbonyloxy)-2,2-dimethyl-propionic acid]",–,–,−106.5
"CC(OC(=O)OC(C)(C)CC(=O)O)n1nc(C#N)c(-c2cccc(OCc3cc(C(F)(F)F)ccc3C(F)(F)F)c2)n1 (stereo not shown) [Example 1827, 3-(1-{4-[3-(2,5-bis-trifluoromethylbenzyloxy)phenyl]-5-cyano-2H-[1,2,3]triazol-2-yl}ethoxycarbonyloxy)-3-methylbutyric acid]",–,–,−82.5
